Active and inactive are the calls of the source.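 The calls were made as follows: active = fitted EC50 no more than tenfold above the highest tested concentration; inconclusive = flat fit with 30 to 70% signal loss, or poor fit; inactive = the rest.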

The assay has as its system Candida albicans CaCi-2 growth (no fluconazole), Alamar Blue. Nature of the assay: intrinsic antifungal toxicity in Candida, azole-free – CaCi-2 strain, Alamar Blue fluorescence, counter-screen for fluconazole resistance reversal project, dose response (AID 2387). The following applies: C. albicans CaCi-2 (fluconazole-resistant clinical isolate) growth without fluconazole, 48 h. In general terms: Alamar Blue is a resazurin reagent that responds to reducing activity.
Take `O=C(NNc1nc2ccc(Cl)cc2s1)c1cc(-c2cccs2)nc2ccccc12`: the EC50 (in general, the concentration giving half of the maximal effect) is > 16 µM (inactive).

Turning to `CCSc1nnc(-c2ccc(C)cc2)c2ccccc12`, the EC50 was > 15 µM (inactive).

Regarding `O=C(Nc1nnc(CCc2ccccc2)s1)c1ccco1`, the EC50 was > 15 µM (inactive).

In the case of `O=C(NCc1ccccc1)c1sc(=S)n2c1[nH]c(=O)c1ccccc12`, the EC50 was > 15 µM (inactive).

On to `CCN1/C(=C/c2sc(-c3ccccc3C)c[n+]2C)Sc2ccccc21`, for which the EC50 is > 15 µM (inactive).

For `O=C(Oc1cc2oc(=O)c3c(c2cc1Cl)CCCC3)c1cccs1`, the EC50 is > 15 µM (inactive).

For the molecule `CCCOc1ccc(C(=O)NNC(=S)NC(=O)CC)cc1`, the EC50 is > 15 µM (inactive).

Turning to `O=[N+]([O-])c1cc(O)c2ncccc2c1`, the EC50 is 12.3 µM.

Consider `CCCC(=O)NC(c1ccc(Cl)cc1)c1ccc2cccnc2c1O` (stereo unspecified), for which the 50% effective concentration (EC50) was 16.1 µM.

In the case of `O=C(Nc1nnc(-c2ccc3c(c2)CCCC3)o1)c1ccc(Cl)cc1Cl`, the EC50 is 14.5 µM.

Consider `C(C#CCCCCCCCCC[n+]1ccccc1)#CCCCCCCCCC[n+]1ccccc1`, for which the EC50 is 2.52 µM.

`C=CCc1c(C)c(C#N)c2nc3ccccc3n2c1NCCN(C)C`: the EC50 was > 15 µM (inactive).

`COc1ccc(N(CC(=O)Nc2ccccc2C(N)=O)S(=O)(=O)c2ccc(C)c([N+](=O)[O-])c2)cc1`: the EC50 was > 16 µM (inactive).

`CN1/C(=C/C(=O)c2cccs2)Sc2ccccc21`: the EC50 is > 15 µM (inactive).

`CC(=O)NC(c1ccc(C)cc1)c1cc([N+](=O)[O-])c2cccnc2c1O` (stereo unspecified): the EC50 is > 16 µM (inactive).

`O=C(/C(=N/N=C/c1ccc(O)c(O)c1O)c1ccccc1)c1ccccc1`: the EC50 was > 15 µM (inactive).

`C=CCNC(=S)N/N=C(\C)c1ccccn1`: the EC50 was 4.96 µM.

Turning to `COc1ccc(OC)c(/C=C2\SC(=S)N(NS(=O)(=O)c3ccc(C)cc3)C2=O)c1`, the EC50 is > 15 µM (inactive).

For `O=C(c1ccc(Cl)cc1)N1CCN(c2ccnc3cc(Cl)ccc23)CC1`, the EC50 was > 15 µM (inactive).

On to `Oc1c(C(Nc2nccs2)c2ccc(C(F)(F)F)cc2)ccc2cccnc12` (stereo unspecified), for which the concentration for a half-maximal effect (EC50) is 4.35 µM.

On to `O=Cc1ccc(O)c2ncccc12`, for which the EC50 was 6.24 µM.

Take `CCOC(=O)c1c(-c2ccccc2Cl)cn2ccccc12`: the EC50 was > 16 µM (inactive).

With `O=C(NNC(=S)Nc1ccc(Cl)c(Cl)c1)c1ccccn1`, the EC50 was 11.3 µM.

Take `CC(C)N1CCc2c(sc(NC(=O)c3nc4ccccc4s3)c2C(N)=O)C1`: the EC50 is > 15 µM (inactive).

Regarding `Cc1cc(N/N=C/c2c(O)ccc3ccccc23)nc(-c2ccccc2O)n1`, the EC50 is > 16 µM (inactive).

For `CCn1c(O)c(N=NC(=O)c2cccs2)c2ccccc21`, the EC50 is > 15 µM (inactive).

`CCC(=O)NC(c1cccs1)c1cc(Cl)c2cccnc2c1O` (stereo unspecified): the EC50 was 16.4 µM.

With `O=C(Nc1cccc(-c2cn3ccccc3n2)c1)c1cccc(Cl)c1`, the EC50 is > 16 µM (inactive).

`O=C(Oc1c(Cl)cc(Cl)c2cccnc12)c1cccs1`: the EC50 was 1.41 µM.

For the molecule `Cc1cc(Br)ccc1OCC(=O)NNC(=O)C(=O)Nc1ccccc1`, the EC50 was > 15 µM (inactive).

In the case of `Oc1c(C(c2ccccc2Cl)N2CCCC2)ccc2cccnc12` (stereo unspecified), the EC50 was 14.3 µM.

The values above are taken from PubChem BioAssay AID2387 (Broad Institute, 2010).
